Laboratory results: patent US20110014196A1, “Drug Transfer into Living Cells” (priority 2007, published 2011)

Tests used:
Type in all cases: biochemical
[1] = tested on: HaloTag protein available from Promega Corporation; experiment: Protein trimer formation with HaloTag protein by SDS-PAGE; settings: 4 h incubation at rt, coomassie staining
Method: To a solution of N-tris[(2-carboxyethoxy)methyl]methyl nile red-oxyacetamide (86) (6 mg, 0.0083 mmol) and 18-chloro-3,6,9,12-tetraoxaoctadecan-1-amine (10 mg, 0.029 mmol, 3.5 eq) in DMF (1 mL) are successively added pyridine (5 μL, 0.058 mmol, 7 eq), HOBT (1 M in NMP, 8.3 μL, 0.0083 mmol, 1 eq) and EDC (6 mg, 0.029 mmol, 3.5 eq) at rt. The resulting mixture is stirred overnight. The solvent is evaporated under vacuum and compound (100) isolated by reversed phase HPLC on a C18 column using a linear gradient of water:acetonitrile (from 95:5 to 20:80 in 20 min, 0.08% TFA). The structural ability of compound (100) to trigger the formation of a protein trimer is confirmed by in vitro experiments using the fusion protein H2. 10 μL of a 70 μM solution of HaloTag protein available from Promega Corporation and 1.8 μL of a 230 μM solution of compound (100) is added to 3.2 μL of a solution of 50 mM Tris-HCl pH 7.5; 100 mM NaCl; 0.1% Tween20; 1 mM DTT. Following a 4 h incubation at rt, 15 μL of a solution of 100 mM Tris-HCl pH 6.8; 2% SDS; 35% glycerol; 10 mM EDTA; 20 mM DTT is added. Then the mixture is boiled for 5 min at 95° C. After cooling to rt, 25 μL of this solution is loaded on a 4-20% linear gradient SDS-PAGE gel. After electrophoresis, the proteins are coomassie stained in gel to visualize protein trimer.

[2] = tested on: fusion protein CLIP-FRB and the fusion protein SNAP-FKBP; experiment: Protein dimer formation with CLIP-FRB and SNAP-FKBP by SDS-PAGE; settings: overnight incubation at 4° C., coomassie staining
Method: The structural ability of compound (104) and (105) to trigger the formation of a protein dimer is confirmed by in vitro experiments using the fusion protein CLIP-FRB and the fusion protein SNAP-FKBP. 1 μL of a 591 μM solution of FKBP protein fused to a variant of AGT available from Covalys as SNAP26, 10 μL of a 52.9 μM solution of FRB protein fused to a variant of AGT available from Covalys as CLIP and 1 μL of a 62.5 μM solution of mixture of compounds (104) and (105) is added to 3 μL of a solution of 50 mM Tris-HCl pH 7.5; 100 mM NaCl; 0.1% Tween20; 1 mM DTT. Following overnight incubation at 4° C., 15 μL of a solution of 100 mM Tris-HCl pH 6.8; 2% SDS; 35% glycerol; 10 mM EDTA; 20 mM DTT is added. Then the mixture is boiled for 5 min at 95° C. After cooling to rt, 25 μL of this solution is loaded on a 4-20% linear gradient SDS-PAGE gel. After electrophoresis, the proteins are coomassie stained in gel to visualize protein dimer.

fusion protein CLIP-FRB = experiment: Protein trimer formation with CLIP-FRB by SDS-PAGE; settings: 4 h incubation at rt, coomassie staining
Chain of fusion protein CLIP-FRB (P16455 1-182 with the stated changes limits assumed): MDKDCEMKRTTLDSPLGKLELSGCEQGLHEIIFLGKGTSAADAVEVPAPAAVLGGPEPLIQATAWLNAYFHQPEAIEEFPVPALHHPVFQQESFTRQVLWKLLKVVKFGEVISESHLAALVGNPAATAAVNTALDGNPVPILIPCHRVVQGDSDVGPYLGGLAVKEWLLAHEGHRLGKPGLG
Method: To a solution of N-tris[(2-carboxyethoxy)methyl]methyl nile red-oxyacetamide (86) (10 mg, 0.014 mmol) and BC-PEG12-NH2 (98) (41 mg, 0.049 mmol, 3.5 eq) in DMF (1 mL) are successively added DIPEA (8.1 μL, 0.049 mmol, 3.5 eq), HOBT (1 M in NMP, 14 μL, 0.014 mmol, 1 eq) and EDC (10 mg, 0.049 mmol, 3.5 eq) at rt. The resulting mixture is stirred overnight. The solvent is evaporated under vacuum and compound (99) isolated by reversed phase HPLC on a C18 column using a linear gradient of water:acetonitrile (from 95:5 to 20:80 in 20 min, 0.08% TFA). The structural ability of compound (99) to trigger the formation of a protein trimer is confirmed by in vitro experiments using the fusion protein CLIP-FRB. 20 μL of a 52.9 μM solution of FRB protein fused to a variant of AGT available from Covalys under the trade name CLIP and 2 μL of a 100 μM solution of compound (99) is added to 3 μL of a solution of 50 mM Iris-HCl pH 7.5; 100 mM NaCl; 0.1% Tween20; 1 mM DTT. Following a 4 h incubation at rt, 15 μL of a solution of 100 mM Tris-HCl pH 6.8; 2% SDS; 35% glycerol; 10 mM EDTA; 20 mM DTT is added. Then the mixture is boiled for 5 min at 95° C. After cooling to rt, 25 μL of this solution is loaded on a 4-20% linear gradient SDS-PAGE gel. After electrophoresis, the proteins are coomassie stained in gel to visualize protein trimer.

[3] = tested on: FKBP protein fused to a variant of AGT available from Covalys as SNAP26 (SNAP-FKBP); experiment: Reactivity with FKBP-AGT fusion protein: protein trimer formation by SDS-PAGE and coomassie staining; settings: 4 h incubation at rt; SDS-PAGE, coomassie staining
Chain of FKBP protein fused to a variant of AGT available from Covalys as SNAP26 (SNAP-FKBP) (P16455 1-182 C62A/K125A/A127T/R128A/G131K/G132T/M134L/R135S/C150S/N157G/S159E limits assumed): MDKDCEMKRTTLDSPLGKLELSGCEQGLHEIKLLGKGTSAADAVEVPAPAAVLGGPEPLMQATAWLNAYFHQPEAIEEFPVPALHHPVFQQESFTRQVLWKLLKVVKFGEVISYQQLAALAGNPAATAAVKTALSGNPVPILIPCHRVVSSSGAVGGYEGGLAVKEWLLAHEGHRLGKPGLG
Method: 1 μL of a 591 μM solution of FKBP protein fused to a variant of AGT available from Covalys as SNAP26 and 1 μL of a 100 μM solution of compound (89), (90), (91), (92) or (96) are added to 8 μL of a solution of 50 mM Tris-HCl pH 7.5; 100 mM NaCl; 0.1% Tween20; 1 mM DTT. Following a 4 h incubation at rt, 15 μL of a solution of 100 mM Tris-HCl pH 6.8; 2% SDS; 35% glycerol; 10 mM EDTA; 20 mM DTT is added. The mixture is boiled for 5 min at 95° C. After cooling to rt, 25 μL of this solution is loaded on a 4-20% linear gradient SDS-PAGE gel. After electrophoresis, the proteins are coomassie stained in gel to visualize protein trimer.

| Compound | structural ability to trigger the formation of a protein trimer [3] | further results |
| --- | --- | --- |
| CCN(CC)c1ccc2nc3c4cc(OCC(=O)NC(COCCC(=O)NCCOCCOCCOCCOCCCCCCCl)(COCCC(=O)NCCOCCOCCOCCOCCCCCCCl)COCCC(=O)NCCOCCOCCOCCOCCCCCCCl)ccc4c(=O)cc-3oc2c1 [Compound 100, N-Tris-{[2-(halo-PEG4-NH-carbonyl)ethoxyl]methyl}methyl nile red-oxyacetamide] |  | structural ability to trigger the formation of a protein trimer [1]: confirmed |
| CN(C)c1ccc2c(-c3ccc(C(=O)NC(CCC(=O)NCc4ccc(COc5nc(N)nc6[nH]cnc56)cc4)C(=O)NCc4ccc(COc5nccc(N)n5)cc4)cc3C(=O)[O-])c3ccc(N(C)C)cc3[o+]c2c1 (centres unmarked) [Compound 104, N5-{4-[(2-amino-9H-purin-6-yloxy)methyl]benzyl}-N1-{4-[(4-aminopyrimidin-2-yloxy)methyl]benzyl}-2-tetramethylrhodamine-5-carboxamido-pentanediamide] |  | structural ability to trigger the formation of a protein dimer [2]: confirmed |
| N-Tris-{[2-(BC-PEG12-NH-carbonyl)ethoxyl]methyl}methyl nile red-oxyacetamide [Compound 99] |  | structural ability to trigger the formation of a protein trimer (fusion protein CLIP-FRB): confirmed |
| N-Tris-{[2-(BG-PEG12-NH-carbonyl)ethoxy]methyl}methyl 3-[2-(2-maleimidoethyl)disulfanyl]propanoylamide [Compound 96] | confirmed |  |
| N-Tris-{[2-(BG-PEG12-NH-carbonyl)ethoxy]methyl}methyl 5-maleimido-pentanecarboxamide [Compound 92] | confirmed |  |
| N-Tris-{[2-(BG-PEG12-NH-carbonyl)ethoxy]methyl}methyl 7-(diethylamino)-coumarin-3-carboxamide [Compound 89] | confirmed |  |
| N-Tris-{[2-(BG-PEG12-NH-carbonyl)ethoxy]methyl}methyl ATTO-495-carboxamide [Compound 90] | confirmed |  |
| N-Tris-{[2-(BG-PEG12-NH-carbonyl)ethoxy]methyl}methyl nile red-oxyacetamide [Compound 91] | confirmed |  |
